Results from the supplement of paper PMC10307832.

Columns and labels:
Assay in all cases: relative viability (nuclei count vs DMSO), 5 days (fraction); higher = more cells survive
Carfilzomib + AZD7762 = compound: CC(C)C[C@H](NC(=O)[C@H](CCc1ccccc1)NC(=O)CN1CCOCC1)C(=O)N[C@@H](Cc1ccccc1)C(=O)N[C@@H](CC(C)C)C(=O)[C@@]1(C)CO1 [Carfilzomib] + NC(=O)Nc1cc(-c2cccc(F)c2)sc1C(=O)N[C@H]1CCCNC1 [AZD7762] (partner 0.2 µM)
How it was run: (§1)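 Lung cancer cell lines were pin-tool dosed in 1536-well plates on the day after seeding, with either a lone drug or a fixed anchor-drug dose plus five library-drug doses (not always all listed) in √10 steps. Nuclei were counted on 4× images after 5 days. Relative viability is the ratio of treated-well to vehicle-well nuclei counts, with each value a median of duplicate plates.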

Carfilzomib + Trametinib = compound: CC(C)C[C@H](NC(=O)[C@H](CCc1ccccc1)NC(=O)CN1CCOCC1)C(=O)N[C@@H](Cc1ccccc1)C(=O)N[C@@H](CC(C)C)C(=O)[C@@]1(C)CO1 [Carfilzomib] + CC(=O)Nc1cccc(-n2c(=O)n(C3CC3)c(=O)c3c(Nc4ccc(I)cc4F)n(C)c(=O)c(C)c32)c1 [Trametinib] (partner 0.02 µM)
How it was run: as §1

Olaparib + Linsitinib = compound: O=C(c1cc(Cc2n[nH]c(=O)c3ccccc23)ccc1F)N1CCN(C(=O)C2CC2)CC1 [Olaparib] + C[C@]1(O)C[C@@H](c2nc(-c3ccc4ccc(-c5ccccc5)nc4c3)c3c(N)nccn32)C1 [Linsitinib] (partner 1 µM)
How it was run: as §1

Crizotinib + Pemetrexed = compound: C[C@@H](Oc1cc(-c2cnn(C3CCNCC3)c2)cnc1N)c1c(Cl)ccc(F)c1Cl [Crizotinib] + Nc1nc2[nH]cc(CCc3ccc(C(=O)N[C@@H](CCC(=O)O)C(=O)O)cc3)c2c(=O)[nH]1 [Pemetrexed] (partner 0.2 µM)
How it was run: as §1

Cell Line: LOU-NH91
- relative viability (Carfilzomib + AZD7762; first compound 0.001 µM): 0.741
- relative viability (Carfilzomib + AZD7762; first compound 0.003162 µM): 0.778
- relative viability (Carfilzomib + AZD7762; first compound 0.01 µM): 0.679
- relative viability (Carfilzomib + AZD7762; first compound 0.03162 µM): 0.309
- relative viability (Carfilzomib + AZD7762; first compound 0.1 µM): 0.329
- relative viability (Carfilzomib + Trametinib; first compound 0.001 µM): 0.831
- relative viability (Carfilzomib + Trametinib; first compound 0.003162 µM): 0.81
- relative viability (Carfilzomib + Trametinib; first compound 0.01 µM): 0.818
- relative viability (Carfilzomib + Trametinib; first compound 0.03162 µM): 0.389
- relative viability (Carfilzomib + Trametinib; first compound 0.1 µM): 0.33
- relative viability (Olaparib + Linsitinib; first compound 0.08 µM): 1.19
- relative viability (Olaparib + Linsitinib; first compound 0.253 µM): 0.94
- relative viability (Olaparib + Linsitinib; first compound 2.53 µM): 0.973
- relative viability (Olaparib + Linsitinib; first compound 8 µM): 0.885
- relative viability (Crizotinib + Pemetrexed; first compound 0.01 µM): 0.35
- relative viability (Crizotinib + Pemetrexed; first compound 0.03162 µM): 0.368
- relative viability (Crizotinib + Pemetrexed; first compound 0.1 µM): 0.383
- relative viability (Crizotinib + Pemetrexed; first compound 0.3162 µM): 0.396
- relative viability (Crizotinib + Pemetrexed; first compound 1 µM): 0.383

Cell Line: LU99A
- relative viability (Carfilzomib + AZD7762; first compound 0.001 µM): 0.346
- relative viability (Carfilzomib + AZD7762; first compound 0.003162 µM): 0.368
- relative viability (Carfilzomib + AZD7762; first compound 0.01 µM): 0.33
- relative viability (Carfilzomib + AZD7762; first compound 0.03162 µM): 0.26
- relative viability (Carfilzomib + AZD7762; first compound 0.1 µM): 0.187
- relative viability (Carfilzomib + Trametinib; first compound 0.001 µM): 0.525
- relative viability (Carfilzomib + Trametinib; first compound 0.003162 µM): 0.588
- relative viability (Carfilzomib + Trametinib; first compound 0.01 µM): 0.541
- relative viability (Carfilzomib + Trametinib; first compound 0.03162 µM): 0.417
- relative viability (Carfilzomib + Trametinib; first compound 0.1 µM): 0.284
- relative viability (Olaparib + Linsitinib; first compound 0.08 µM): 0.587
- relative viability (Olaparib + Linsitinib; first compound 0.253 µM): 0.515
- relative viability (Olaparib + Linsitinib; first compound 2.53 µM): 0.414
- relative viability (Olaparib + Linsitinib; first compound 8 µM): 0.333
- relative viability (Crizotinib + Pemetrexed; first compound 0.01 µM): 0.165
- relative viability (Crizotinib + Pemetrexed; first compound 0.03162 µM): 0.167
- relative viability (Crizotinib + Pemetrexed; first compound 0.1 µM): 0.173
- relative viability (Crizotinib + Pemetrexed; first compound 0.3162 µM): 0.142
- relative viability (Crizotinib + Pemetrexed; first compound 1 µM): 0.173

Cell Line: LXF-289
- relative viability (Carfilzomib + AZD7762; first compound 0.001 µM): 1.06
- relative viability (Carfilzomib + AZD7762; first compound 0.003162 µM): 1.14
- relative viability (Carfilzomib + AZD7762; first compound 0.01 µM): 1.14
- relative viability (Carfilzomib + AZD7762; first compound 0.03162 µM): 0.119
- relative viability (Carfilzomib + AZD7762; first compound 0.1 µM): 0.114
- relative viability (Carfilzomib + Trametinib; first compound 0.001 µM): 0.705
- relative viability (Carfilzomib + Trametinib; first compound 0.003162 µM): 0.742
- relative viability (Carfilzomib + Trametinib; first compound 0.01 µM): 0.679
- relative viability (Carfilzomib + Trametinib; first compound 0.03162 µM): 0.163
- relative viability (Carfilzomib + Trametinib; first compound 0.1 µM): 0.107
- relative viability (Olaparib + Linsitinib; first compound 0.08 µM): 1.05
- relative viability (Olaparib + Linsitinib; first compound 0.253 µM): 0.899
- relative viability (Olaparib + Linsitinib; first compound 2.53 µM): 1.02
- relative viability (Olaparib + Linsitinib; first compound 8 µM): 0.968
- relative viability (Crizotinib + Pemetrexed; first compound 0.01 µM): 0.807
- relative viability (Crizotinib + Pemetrexed; first compound 0.03162 µM): 0.939
- relative viability (Crizotinib + Pemetrexed; first compound 0.1 µM): 0.788
- relative viability (Crizotinib + Pemetrexed; first compound 0.3162 µM): 0.736

Cell Line: NCI-H23
- relative viability (Carfilzomib + AZD7762; first compound 0.001 µM): 0.232
- relative viability (Carfilzomib + AZD7762; first compound 0.003162 µM): 0.267
- relative viability (Carfilzomib + AZD7762; first compound 0.01 µM): 0.196
- relative viability (Carfilzomib + AZD7762; first compound 0.03162 µM): 0.112
- relative viability (Carfilzomib + AZD7762; first compound 0.1 µM): 0.122
- relative viability (Carfilzomib + Trametinib; first compound 0.001 µM): 0.39
- relative viability (Carfilzomib + Trametinib; first compound 0.003162 µM): 0.328
- relative viability (Carfilzomib + Trametinib; first compound 0.01 µM): 0.428
- relative viability (Carfilzomib + Trametinib; first compound 0.03162 µM): 0.238
- relative viability (Carfilzomib + Trametinib; first compound 0.1 µM): 0.0981
- relative viability (Olaparib + Linsitinib; first compound 0.08 µM): 0.572
- relative viability (Olaparib + Linsitinib; first compound 0.253 µM): 0.572
- relative viability (Olaparib + Linsitinib; first compound 2.53 µM): 0.45
- relative viability (Olaparib + Linsitinib; first compound 8 µM): 0.299
- relative viability (Crizotinib + Pemetrexed; first compound 0.01 µM): 0.489
- relative viability (Crizotinib + Pemetrexed; first compound 0.03162 µM): 0.591
- relative viability (Crizotinib + Pemetrexed; first compound 0.1 µM): 0.567
- relative viability (Crizotinib + Pemetrexed; first compound 1 µM): 0.812

Cell Line: NCI-H322M
- relative viability (Carfilzomib + AZD7762; first compound 0.001 µM): 0.677
- relative viability (Carfilzomib + AZD7762; first compound 0.003162 µM): 0.527
- relative viability (Carfilzomib + AZD7762; first compound 0.01 µM): 0.682
- relative viability (Carfilzomib + AZD7762; first compound 0.03162 µM): 0.59
- relative viability (Carfilzomib + AZD7762; first compound 0.1 µM): 0.464
- relative viability (Carfilzomib + Trametinib; first compound 0.001 µM): 0.505
- relative viability (Carfilzomib + Trametinib; first compound 0.003162 µM): 0.49
- relative viability (Carfilzomib + Trametinib; first compound 0.01 µM): 0.487
- relative viability (Carfilzomib + Trametinib; first compound 0.03162 µM): 0.507
- relative viability (Carfilzomib + Trametinib; first compound 0.1 µM): 0.364
- relative viability (Olaparib + Linsitinib; first compound 0.08 µM): 0.819
- relative viability (Olaparib + Linsitinib; first compound 0.253 µM): 0.879
- relative viability (Olaparib + Linsitinib; first compound 2.53 µM): 0.979
- relative viability (Olaparib + Linsitinib; first compound 8 µM): 0.84
- relative viability (Crizotinib + Pemetrexed; first compound 0.03162 µM): 0.656
- relative viability (Crizotinib + Pemetrexed; first compound 0.1 µM): 0.593
- relative viability (Crizotinib + Pemetrexed; first compound 0.3162 µM): 0.649
- relative viability (Crizotinib + Pemetrexed; first compound 1 µM): 0.656

Cell Line: NCI-H358
- relative viability (Carfilzomib + AZD7762; first compound 0.001 µM): 0.449
- relative viability (Carfilzomib + AZD7762; first compound 0.003162 µM): 0.615
- relative viability (Carfilzomib + AZD7762; first compound 0.01 µM): 0.63
- relative viability (Carfilzomib + AZD7762; first compound 0.03162 µM): 0.255
- relative viability (Carfilzomib + AZD7762; first compound 0.1 µM): 0.226
- relative viability (Carfilzomib + Trametinib; first compound 0.001 µM): 0.139
- relative viability (Carfilzomib + Trametinib; first compound 0.003162 µM): 0.136
- relative viability (Carfilzomib + Trametinib; first compound 0.01 µM): 0.141
- relative viability (Carfilzomib + Trametinib; first compound 0.03162 µM): 0.0944
- relative viability (Carfilzomib + Trametinib; first compound 0.1 µM): 0.0819
- relative viability (Olaparib + Linsitinib; first compound 0.08 µM): 0.842
- relative viability (Olaparib + Linsitinib; first compound 0.253 µM): 0.608
- relative viability (Olaparib + Linsitinib; first compound 2.53 µM): 0.668
- relative viability (Olaparib + Linsitinib; first compound 8 µM): 0.592
- relative viability (Crizotinib + Pemetrexed; first compound 0.01 µM): 0.174
- relative viability (Crizotinib + Pemetrexed; first compound 0.03162 µM): 0.168
- relative viability (Crizotinib + Pemetrexed; first compound 0.1 µM): 0.172
- relative viability (Crizotinib + Pemetrexed; first compound 0.3162 µM): 0.18
- relative viability (Crizotinib + Pemetrexed; first compound 1 µM): 0.173

Cell Line: NCI-H441
- relative viability (Carfilzomib + AZD7762; first compound 0.001 µM): 1.06
- relative viability (Carfilzomib + AZD7762; first compound 0.003162 µM): 1.23
- relative viability (Carfilzomib + AZD7762; first compound 0.01 µM): 1.07
- relative viability (Carfilzomib + AZD7762; first compound 0.03162 µM): 0.252
- relative viability (Carfilzomib + AZD7762; first compound 0.1 µM): 0.138
- relative viability (Carfilzomib + Trametinib; first compound 0.001 µM): 0.554
- relative viability (Carfilzomib + Trametinib; first compound 0.003162 µM): 0.445
- relative viability (Carfilzomib + Trametinib; first compound 0.01 µM): 0.236
- relative viability (Carfilzomib + Trametinib; first compound 0.03162 µM): 0.103
- relative viability (Carfilzomib + Trametinib; first compound 0.1 µM): 0.115
- relative viability (Olaparib + Linsitinib; first compound 0.08 µM): 0.658
- relative viability (Olaparib + Linsitinib; first compound 0.253 µM): 0.528
- relative viability (Olaparib + Linsitinib; first compound 2.53 µM): 0.544
- relative viability (Olaparib + Linsitinib; first compound 8 µM): 0.485
- relative viability (Crizotinib + Pemetrexed; first compound 0.01 µM): 0.25
- relative viability (Crizotinib + Pemetrexed; first compound 0.03162 µM): 0.265
- relative viability (Crizotinib + Pemetrexed; first compound 0.1 µM): 0.292
- relative viability (Crizotinib + Pemetrexed; first compound 0.3162 µM): 0.246
- relative viability (Crizotinib + Pemetrexed; first compound 1 µM): 0.237
